Drawing on paper PMC12040169 (PLOS Biology, 2025), this text covers viability for 79 compounds.

Each structure is given as a SMILES string.

A short description of this data set: in vitro. The settings on record: human, hela cells, % viability.

Turning to `Cc1cc(C)c2c(c1)-c1c(ssc1=S)C(C)(C)N2C(=O)CSc1nnc[nH]1` [CBK263038], the viability at 28.5 h, 10 µM amounted to 88.5%.
The same measure for `COc1cccc(C(=O)Nc2cc(C)c3c(=O)oc4ccccc4c3n2)c1OC` [CBK287437]: 106%; for `O=C(CCn1c(C(F)(F)F)cc2cccnc21)NC1CCCOC1` (stereo not shown) [CBK284867]: 109%; for `Cc1c(C(=O)N2CCC[C@H]2[C@H](O)c2nccs2)oc2ccccc12` [CBK284281]: 100%.
The value for `CCC1CCc2c(sc(NC(=O)c3cc(-c4ccc(Cl)s4)nc4ccccc34)c2C(N)=O)C1` (stereo not shown) [CBK262646] was 88.9%; that for `O=C(CSc1nnc(-c2ccccc2Cl)[nH]1)c1ccc(O)c(O)c1` [CBK267693] was 78.3%; that for `CCCc1nc(NC(C)=O)c(C#N)c(-c2ccco2)c1CC` [CBK018074] was 100%.
The same measure for `COc1cccc(-c2ccc3ccc(N)nc3n2)c1` [CBK061640]: 99%; for `OC1CCN(CC(O)Cn2c3ccccc3c3ccccc32)CC1` (stereo not shown) [CBK305784]: 100%; for `O=C(c1ccc2ccccc2n1)N1CCC(F)CC1` [CBK200276]: 102%.
As to `O=C(O)C1CCCN(C(=O)NCc2cccc(C(F)(F)F)c2)C1` (stereo not shown) [CBK161345], the viability at 28.5 h, 10 µM was determined as 94.5%.
The value for `NNC(=O)/C(=C\c1cccc([N+](=O)[O-])c1)NC(=O)c1ccc(Br)o1` [CBK262573] was 107%.
Take `CC1CCCCC1NC(=O)Cn1c(=O)n(C(C)C)c2ncccc21` (stereo not shown) [CBK283697]: the viability at 28.5 h, 10 µM is 88.8%.
The same measure for `NNC(=O)CSc1nnc2ccc(C(F)(F)F)cn12` [CBK006897]: 90.3%.
The value for `Cc1ccc(NC2=NC(C(=O)Nc3ccc(C)c(C)c3)CC(=O)N2)cc1` (stereo not shown) [CBK266718] was 96.9%.
Consider `O=C(NCC1Cc2ccccc2O1)c1ccc(Br)cc1Cl` (stereo not shown) [CBK298323], for which the viability at 28.5 h, 10 µM stood at 86.9%.
As to `CCc1cc(CNS(=O)(=O)c2ccc(C)s2)on1` [CBK283066], the viability at 28.5 h, 10 µM stood at 99.6%.
As for `COc1ccc(-n2ncc3c2CC(C)(C)CC3N)cc1` (stereo not shown) [CBK306789], the viability at 28.5 h, 10 µM amounted to 80%.
The value for `Cc1nc[nH]c1CN1CCCN(S(=O)(=O)c2ccc(-n3cnc(Cl)c3Cl)cc2)CC1` [CBK063087] was 91.7%.
The same measure for `CCOC(=O)c1cn([C@H](CO)CCSC)cc(Oc2ccccc2)c1=O` [CBK307349]: 98.9%.
The same measure for `Cc1cccc(-c2ncc(C(=O)NCc3csc4ccc(Cl)cc34)cc2-c2ccncc2)c1` [CBK036770]: 89.6%.
With `CCn1cc(CN(C)C(=S)Nc2cccc(C(C)=O)c2)c(C)n1` [CBK267040], the viability at 28.5 h, 10 µM turned out to be 106%.
The same measure for `COc1ncc(-c2nccnc2NCc2cccc([N+](=O)[O-])c2)c(OC)n1` [CBK036680]: 97.7%; for `Cc1csc(-c2ccc(C(=O)N3CCN(C)CC3)c(N3CCOCC3)n2)c1` [CBK106195]: 90.8%.
Consider `CCOc1ccc(NC(=O)C(C)O)c(NS(=O)(=O)c2ccc3ccccc3c2)c1` (stereo not shown) [CBK268309], for which the viability at 28.5 h, 10 µM stood at 87.6%.
The value for `CCN(CCO)c1ccc(Nc2nc(-c3cccc4ccccc34)cn3ccnc23)cc1` [CBK066243] was 87.9%.
The same measure for `CC(C)c1ccc(N2C(=O)N[C@@H]3CCN(S(=O)(=O)c4ccccc4)[C@@H]3C2=O)cc1` [CBK289289]: 114%.
For `COc1cccc(CC(=O)N2CCCC2c2cc(Nc3nc(C)cc(C)n3)cc(C)n2)c1` (stereo not shown) [CBK285999], the viability at 28.5 h, 10 µM was determined as 90.5%.
On to `CCOC(CCNC(=O)c1cnc(Nc2ccccc2OC)c2ccccc12)OCC` [CBK291184], for which the viability at 28.5 h, 10 µM turned out to be 68.3%.
Take `Cn1c(S)nnc1-c1ccccc1F` [CBK028811]: the viability at 28.5 h, 10 µM worked out at 95%.
For `O=C(C1CC=CCC1)N1CCC(c2[nH]ncc2-c2ccncc2)CC1` (stereo not shown) [CBK284212], the viability at 28.5 h, 10 µM was 84%.
The same measure for `CN(C)C(=O)Cc1ccc(-c2ccccc2)cc1` [CBK012162]: 94.2%; for `OCc1ccccc1-c1cn2ccnc2c(Nc2ccccc2)n1` [CBK037999]: 108%; for `CS(=O)(=O)c1ccc(C(=O)Nc2nc(-c3ccccc3)cs2)cc1` [CBK287716]: 102%.
The same measure for `Cc1[nH]c(=O)[nH]c(=O)c1S(=O)(=O)N1CCOCC1` [CBK261060]: 96.1%.
The value for `Cc1cccnc1C(Cc1ccsc1)NC(=O)Cn1ccnc1` (stereo not shown) [CBK284802] was 94.1%; that for `O=C(O)c1ccc(NS(=O)(=O)c2cc(F)c(Br)cc2F)cc1` [CBK034045] was 101%; that for `O=C(O)Cc1ccc(-n2c(S)nnc2-c2ccncc2)cc1` [CBK268860] was 94.9%.
For `Cn1nccc1-c1cc(C(=O)NC2(C)CCC2)c2ccccc2n1` [CBK281605], the viability at 28.5 h, 10 µM amounted to 92.7%.
For the compound `COc1cccc2c1ncc1c(=O)nc(N)sc12` [CBK291241], the viability at 28.5 h, 10 µM was 88.9%.
`Nc1n[nH]c(SCC(=O)Nc2ccc(Br)cc2Cl)n1` [CBK267875]: the viability at 28.5 h, 10 µM worked out at 95.3%.
On to `CCOc1ccccc1NC(=O)CCCN1C(=O)c2ccccc2C1=O` [CBK265608], for which the viability at 28.5 h, 10 µM turned out to be 107%.
Take `CCn1cc(NC(=O)CC(C)(O)c2ccccc2)ccc1=O` (stereo not shown) [CBK304507]: the viability at 28.5 h, 10 µM came out at 91.7%.
As to `CCC(NC(=O)c1cc(CC(C)C)nn1CC)c1cn2cccnc2n1` (stereo not shown) [CBK307505], the viability at 28.5 h, 10 µM worked out at 101%.
The same measure for `CN(c1ncc(Br)cc1C(=O)NC1CCCCC1)S(C)(=O)=O` [CBK076531]: 111%; for `CS(=O)(=O)Nc1ccc2c(O)c(C(=O)NCc3ccc(Cl)cc3)c(=O)[nH]c2c1` [CBK017559]: 88.9%; for `COc1ccc(-n2cc(-c3ccc(C(F)(F)F)cc3)nn2)cc1OC` [CBK112952]: 96.8%.
The value for `CCN(CC)C(=O)CN1CCCN(c2cc(OCc3cc(C)on3)ncn2)CC1` [CBK083337T] was 97%; that for `COc1ncccc1CNc1ncnc2c1cnn2CCO` [CBK305980] was 116%; that for `CN1C[C@@H](NC(=O)c2ccc(C#N)cc2)C[C@H]1c1nc(-c2ccc(F)cc2)no1` [CBK288865] was 92.1%.
The same measure for `CCc1nc2n(n1)CC(NCc1nc(C)ccc1O)CC2` (stereo not shown) [CBK306107]: 106%.
On to `O=S(=O)(c1ccc(F)cc1)N1CCCC1c1cccc(Cc2cccc(F)c2)n1` (stereo not shown) [CBK286209], for which the viability at 28.5 h, 10 µM turned out to be 93.9%.
The same measure for `N=C1NC(=O)C(CC(=O)Nc2ccc(SC(F)F)cc2)S1` (stereo not shown) [CBK265648]: 91.1%.
The same measure for `Cc1ccnc(SCC(N)=O)n1` [CBK028874]: 96.1%; for `CSC1CCC(N(C)C(=O)NCCc2cn3cccc(C)c3n2)C1` (stereo not shown) [CBK305324]: 84.5%.
In the case of `COC(=O)c1ccc(F)c(NC(=O)C2CCCC2)c1` [CBK296640], the viability at 28.5 h, 10 µM was determined as 85.5%.
The same measure for `COc1ccc2nc(Nc3nc(-c4cccnc4)cs3)sc2c1` [CBK287482]: 89.1%; for `O=Cc1c(-[n+]2ccc(-c3ccncc3)cc2)nc([O-])n1-c1ccccc1` [CBK261529]: 108%.
The same measure for `Cc1nn(C(C)C(=O)Nc2cc(C(F)(F)F)ccc2Cl)c(C)c1[N+](=O)[O-]` (stereo not shown) [CBK268697]: 88.5%.
Turning to `COc1ccc(Cl)cc1-c1noc(Cn2nc(C)c(Cl)c2C)n1` [CBK269813], the viability at 28.5 h, 10 µM is 92.1%.
The same measure for `Cc1cc(N2CCCN(C(=O)CCCOc3ccccc3)CC2)ccn1` [CBK307052]: 86.6%; for `Cc1cc(N2C(=O)CC(N3CCN(c4ccc(C(=O)c5cccs5)cc4)CC3)C2=O)no1` (stereo not shown) [CBK268701]: 84.4%.
For `Cc1nnc(N/N=C\c2c(Cl)cccc2Cl)[nH]c1=O` [CBK027921], the viability at 28.5 h, 10 µM was determined as 110%.
The same measure for `O=[N+]([O-])c1cc(S(=O)(=O)Nc2ccc3cn[nH]c3c2)ccc1Cl` [CBK067160]: 91.1%; for `Cc1nc(C)c(C(=O)N2CCC(c3cc4ncccc4[nH]3)CC2)s1` [CBK283396]: 101%; for `O=C(CN1C(=O)S/C(=C\c2ccc(OCc3ccccc3F)cc2)C1=O)c1ccc(Cl)cc1` [CBK264632]: 97.6%.
With `OC1CSc2nc(-c3cnccn3)nn2C1` (stereo not shown) [CBK027096], the viability at 28.5 h, 10 µM was 97.8%.
The value for `O=C(O)c1ccccc1NS(=O)(=O)c1cccc2cccnc12` [CBK042358] was 56.7%; that for `COc1ccc(C(=O)N2CCC(N(C)Cc3ccc(-c4ccc(S(C)(=O)=O)cc4)nc3)CC2)cc1Cl` [CBK165991T] was 95.8%.
The value for `Cc1cccc(N2CCN(CC(=O)Nc3ccc(S(N)(=O)=O)cc3)CC2)c1C` [CBK269369] was 96.8%; that for `O=C1CC2(CCCC2)C(=O)N1CCNc1nccc(C(F)(F)F)n1` [CBK028777] was 97.4%; that for `O=C(COc1ccc([N+](=O)[O-])cc1)Nc1ccc2oc(-c3ccc(Br)cc3)nc2c1` [CBK263444] was 106%.
Consider `CN(C)c1nc(-c2cc(C(F)(F)F)cc(C(F)(F)F)c2)ccc1C(=O)NCc1ccco1` [CBK106094], for which the viability at 28.5 h, 10 µM amounted to 89.5%.
In the case of `CCC(C(=O)O)N1C(=O)NC2C1N(C)C(=O)N2C` (stereo not shown) [CBK287039], the viability at 28.5 h, 10 µM came to 79.9%.
The same measure for `CCCN1CCCC(NS(=O)(=O)c2cc(-n3cccn3)ccc2OC)C1` (stereo not shown) [CBK307426]: 91.8%.
The same measure for `COc1cccc(CSc2ccc(CN3CCOCC3)cc2F)c1` [CBK174976]: 87.1%.
The same measure for `CCCC/C=C/c1cnc2[nH]c(=O)n(Cc3ccccn3)c2n1` [CBK064365]: 102%; for `COc1ccnc(Cn2ncc(N3CCCC3)cc2=O)c1` [CBK304379]: 87.5%; for `Cn1c(O)c(CCNc2cc([C@H]3C[C@@H](N)C3)nc(C3CC3)n2)cnc1=O` [CBK306819]: 85%.
